From ChEMBL document CHEMBL1201862, “PubChem BioAssay data set” (2004)
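Step 1: Grow cells in 96-well plates. Step 2: Expose to compound for 48 hours at 5 concentrations. Step 3: Interpolate endpoints linearly; if unreached, use highest concentration. GI50 = concentration required for 50% inhibition of growth.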 The source made the active and inactive calls. No stated cut-off is given here; in the data, active = GI50 up to about 1.1 µM and inactive = higher.

Key:
Test in all cases: inhibition of tumour cell growth, NCI panel, 48 h
[1] = test system: UO-31
[2] = test system: HOP-62
[3] = test system: SF-539
[4] = test system: HT-29
[5] = test system: EKVX
[6] = test system: LOX IMVI
[7] = test system: OVCAR-5
[8] = test system: UACC-62
[9] = test system: A498
[10] = test system: UACC-257
[11] = test system: U-251
[12] = test system: SK-MEL-28
[13] = test system: SNB-19
[14] = test system: NCI-H23
[15] = test system: NCI-H522
[16] = test system: OVCAR-4

Measured: GI50

N#CC(C#N)=Cc1cccc(Oc2ccccc2)c1
inactive: [1] 15.9 µM | [2] 23.4 µM | [3] 18.4 µM | [4] 22.7 µM | [5] 54.2 µM | [6] 20.6 µM | [7] > 67.1 µM | [8] 22.3 µM | [9] > 63.2 µM | [10] 16.8 µM | [11] 13.6 µM | [12] 13.8 µM | [13] 22 µM | [14] 14.9 µM | [15] 21.2 µM

O=C1NC2(CCCCC2)C2=C1CCCCC2
inactive: [1] > 100 µM | [2] > 100 µM | [3] > 100 µM | [4] > 100 µM | [5] > 100 µM | [6] > 100 µM | [7] > 100 µM | [16] > 100 µM | [8] > 100 µM | [9] > 100 µM | [10] > 100 µM | [11] > 100 µM | [12] > 100 µM | [13] > 100 µM | [14] > 100 µM | [15] > 100 µM

O=C(NC1CCC[C@H]1OC(=O)c1ccccc1)c1ccccc1 (stereo partly specified)
inactive: [1] 16.1 µM | [3] > 100 µM | [4] 39.7 µM | [5] > 100 µM | [7] > 100 µM | [16] 30.8 µM | [8] 50.9 µM | [9] 33.1 µM | [10] > 100 µM | [11] > 100 µM | [12] > 100 µM | [13] > 100 µM | [14] 31 µM

Oc1cccnc1/C=N/OCc1ccccc1
inactive: [1] 68.2 µM | [2] > 100 µM | [3] > 100 µM | [4] > 100 µM | [5] > 100 µM | [6] > 100 µM | [7] > 100 µM | [8] > 100 µM | [9] > 100 µM | [10] > 100 µM | [11] > 100 µM | [13] > 100 µM | [15] > 100 µM

COC1=CC(=O)C2C(C1=O)[C@@H]1c3ccccc3OC[C@H]21 (stereo partly specified)
inactive: [1] > 100 µM | [2] > 100 µM | [3] > 100 µM | [4] > 100 µM | [5] > 100 µM | [6] > 100 µM | [7] > 100 µM | [16] > 100 µM | [9] > 100 µM | [11] > 100 µM | [12] > 100 µM | [13] > 100 µM | [14] > 100 µM | [15] 49.9 µM
